Experimental data published in patent US10829489B2, “Bicyclic heterocyclic derivatives” (Merck Patent GmbH, priority 2015, dated 2020).

Assays:
PDHK2 = PDHK2 (Homo sapiens (Human), UniProt Q15119); experiment: Biochemical activity testing of PDHK2: PDC inactivation assay; settings: human rec PDHK2, PDC inactivation assay; read-out: IC50 PDHK2 (enzyme assay)
From the text: Biochemical Activity Testing of PDHK2: PDC Inactivation Assay
The biochemical activity assay for PDHK2 is based on the inactivation of PDC through phosphorylation by PDHK2. The assay is run in two steps: the enzymatic PDHK2 reaction in which isolated PDC is phosphorylated by PDHK2 with ATP as co-substrate and the PDC activity assay in which pyruvate and NAD are converted to acetyl-CoA and NADH. The PDC activity correlates to the increase in NADH and thereby is detectable directly via the increasing fluorescence signal (Exc 340 nm, Em 450 nm). Inhibition of PDHK2 results in a lower phosphorylation status and thereby a less decrease in activity of PDC and a stronger increase in NADH fluorescence signal.
The PDC inactivation assay is performed in Greiner 384-well microtiter plates and is used for high throughput screen. […] The first fluorescence measurement is performed on a Perkin Elmer Envision (Exc 340 nm, Em 450 nm). […] Afterwards a second fluorescence measurement is performed and the PDC activity is calculated by the difference between both measurements. […] The inhibitory values (IC50) were determined using either the program Symyx Assay Explorer® or Condosseo® from GeneData.

human PDHK2 (12-407) = human PDHK2 (12-407) (Homo sapiens (Human), UniProt Q15119); experiment: Isothermal titration calorimetry (ITC) binding; settings: 30° C.
Description: Isothermal Titration Calorimetry
ITC measurements were performed with a VP-ITC micro calorimeter (Microcal, LLC/GE Healthcare Bio-Sciences AB, Uppsala, Sweden). In general titrations were performed by titrating the protein (50 μM) to the test compound (5 μM) in 12 μl injections. All binding experiments were carried out at 30° C. In general the test compounds were diluted form DMSO stock solutions into the measurement buffer with a maximum final concentration of 1% DMSO. The measurement buffer was 20 mM HEPES, 135 mM KCl, 1 mM TCEP, 2 mM MgCl2, 15 mM NaH2PO4, pH 7.5. The human PDHK2 (12-407) was produced in E. coli as his-tagged protein and purified by affinity chromatography. The tag was removed by side specific proteolysis. Before titration the protein buffer was changed to the measurement buffer containing the same DMSO concentration as the test compound dilution. ITC data analysis was performed using Origin 7 calorimetry software from the same supplier. For most measurements a binding model of one binding site was assumed. According to the applied mathematical model it is possible to calculate the binding constant (KA), the observed binding enthalpy (ΔH^obs) as well as the stoichiometry (N) of the formed complex. Preceding analysis the raw data was corrected for the heats of dilution by extrapolating from the saturation value from the end of titration. In order to allow for direct comparison between the respective experimental series and protein preparations the protein concentration was corrected by referencing titrations to a well behaved standard inhibitor. The apparent stoichiometry values defined the fraction of binding competent protein and compensated for relative errors in protein concentration measurements. This corrected protein concentration was used to set up ITC experiment series with test compounds. Any deviations from ideal 1:1 stoichiometry observed here were attributed to errors in compound concentration. This nominal compound concentration was corrected as well to achieve 1:1 stoichiometry in the fit.

[1] = test system: PDH-E1alpha (pSer300) in HEK293T cells; experiment: Cellular immunofluorescence assay for compound activity (Anti-PDH-E1alpha pSer300); assay type: cell-based; settings: Homo sapiens, HEK-293T, 5 hours incubation, read-out: IC50 (cell data)
Description: Cellular Assay for Determination of Compound Activities
Compound activities were determined in a cellular immunofluorescence assay. Human HEK293T cells were seeded into black 384-well plates with clear bottom and grown overnight.
Next day, test compounds were added to the wells and the plates incubated for 5 hours. Following this, cells were fixed with formaldehyde, permeabilised and blocked. The primary antibody, Anti-PDH-E1alpha (pSer300), AP1064 (Merck Millipore) was added and incubated overnight in the plate wells. Next, cells were washed and the secondary antibody, Alexa Fluor 488, goat anti-rabbit ab (A-11008, Invitrogen) was added together with Hoechst 33258 (H3569, Invitrogen) and incubated for 1 hour in the plate wells. Finally, cells were washed and the plates were measured on the laser scanning cytometer acumen hci (TTpLabtech).
The raw data were normalized against a pharmacological inhibitor control and dose response curves were generated by plotting the percent effect values using the software package Genedata screener (Genedata).

SMILES | IC50 (PDHK2) | Kd (human PDHK2 (12-407)) | IC50 [1]
COc1ccc(-n2ncc3c2[C@H](C)CN(C(=O)[C@@](C)(O)C(F)(F)F)C3)cn1 [Compound A30, (R)-3,3,3-Trifluoro-2-hydroxy-1-[(R)-1-(6-methoxy-pyridin-3-yl)-7-methyl-1,4,6,7-tetrahydro-pyrazolo[4,3-c]pyridin-5-yl]-2-methyl-propan-1-one] | < 300 nM | < 300 nM | < 300 nM
C[C@@](O)(C(=O)N1CCc2c(ncn2-c2ccc(Cl)cc2)C1)C(F)(F)F [Compound A45, (R)-1-[1-(4-Chloro-phenyl)-1,4,6,7-tetrahydro-imidazo[4,5-c]pyridin-5-yl]-3,3,3-trifluoro-2-hydroxy-2-methyl-propan-1-one] | – | < 300 nM | –
C[C@@](O)(C(=O)N1CCc2c(ncn2-c2ccc(F)cc2)C1)C(F)(F)F [Compound A44, (R)-3,3,3-Trifluoro-1-[1-(4-fluoro-phenyl)-1,4,6,7-tetrahydro-imidazo[4,5-c]pyridin-5-yl]-2-hydroxy-2-methyl-propan-1-one] | – | < 300 nM | –
COc1ccc(-n2ncc3c2[C@@H](C)CN(C(=O)[C@@](C)(O)C(F)(F)F)C3)cn1 [Compound A31, (R)-3,3,3-Trifluoro-2-hydroxy-1-[(S)-1-(6-methoxy-pyridin-3-yl)-7-methyl-1,4,6,7-tetrahydro-pyrazolo[4,3-c]pyridin-5-yl]-2-methyl-propan-1-one] | 3000 to 50000 nM | – | –
